# Experimental data taken from patent US20030203963A1, “Antimicrobial agent” (priority 2001, published 2003).
# Legend:
# Salm Typhimurium S29 = test: Chicken soup trial at 8° C.; format: cell-based, Salmonella Typhimurium; settings: chicken soup at 8° C., TCSM010521, APP215
# From the text: (§1) A local supermarket brand of cream of chicken soup was used as a model food system. 600 g packs were purchased from the local supermarket. This was a ‘fresh home-made type’ of soup that was stored in the chill cabinet, with a short shelf life. It was chosen because it is a rich, nutritious food system containing a range of food components including meat, dairy and vegetable.
# (§2) Ingredients were labelled as: chicken stock (water, duck fat, chicken, salt, flavourings, yeast extracts, pork gelatine, glucose syrup, vegetable concentrate, milk protein, sugar, malto-dextrin, vegetable oil, citric acid, lactose, chicken fat), ilk, chicken (9%), cream (8%), onion, potato, vegetable oil, modified maize starch, wheat flour, lemon juice, salt, white pepper. pH 5.912. Protein: 3.3%; carbohydrate: 4.7%; fat: 7.2%; fibre: 0.2%; sodium: 0.1%
# (§3) For the test the soup was mixed 2:1 in water (to facilitate sampling and mixing) and sterilised by autoclaving at 121° C. for 15 minutes. For each experiment the pH of the soup was recorded; this was between pH 5.79-5.88.
# (§4) For TCS010521/8 (incubated at 8° C.), samples were prepared in 27.8 g quantities. 1.5 g of an APP stock solution was added, and the tests inoculated with 0.3 ml of a suitably diluted cell or spore suspension to give a final inoculum of ca. 10^3 cfu/g. APP was tested at 0, 500 and 1000 ppm, and batch number APP20010213 (at 169 mg/ml) was used. […]
# TAVC = test: Uninoculated test in raw meat; format: cell-based; settings: 2000 ppm APP; for Viable counts: raw meat at 8° C.
# Protocol: […] of raw minced beef was purchased from the local butcher. 10 g of either a 2% (20,000 ppm) stock solution of APP2001213 or water was added, and the meat mixed thoroughly. Initial counts were carried out, and then the meat was incubated at 8° C. and sampled for 3 consecutive days. The pH of the raw meat was 5.3.
# S. cerevisiae ATCC9763 [1] = test: Test in apple juice; format: cell-based, Saccharomyces cerevisiae; settings: 2000 ppm; apple juice (pH 3.42) at 25° C., TAJ010530
# Protocol: 8.9 ml apple juice samples (pH 3.42) were prepared and autoclaved. Batch number APP20010215 (at 138 mg/ml) was used to prepare filter-sterilised stock solutions for 1 ml addition to the juice to achieve 0, 1000, 2000 ppm APP. Tests were inoculated with 100 μl of an appropriately diluted overnight SLM broth of yeast culture or ascospore suspension of Byssochlamys spores prepared earlier. The tests were incubated at 25° C., and examined daily for signs of growth (e.g. turbidity, mycelium development).
# S. cerevisiae ATCC9763 [2] = test: Bioscreen growth inhibition test; format: cell-based, Saccharomyces cerevisiae; settings: APP 213, BS010420, 72 h/25° C.
# Protocol: (§5) For broth cultures and Bioscreen testing most bacteria were grown in Brain Heart Infusion (BHI, Oxoid, pH 7.4). Lactobacillus sake A10 was grown in de Man, Rogosa, Sharpe medium ([…], Oxoid). Yeasts were grown in Sabouraud Liquid medium (SLM, Oxoid). Most bacteria were cultured at 30° C. Lactic acid bacteria were grown on solid medium in enriched CO2 atmosphere. Clostridium species were grown in Reinforced Clostridial Medium (RCM) at 37° C. anaerobically. Brochothrix thermosphacta fungi and yeasts were grown at 25° C. Fungi were cultured on Malt Extract Agar (MEA, Oxoid).
# (§6) An automated Microbiology Reader Bioscreen C was used to measure growth curves of the strains in the presence and absence of APP. The Bioscreen C measures the development of turbidity (i.e. growth) kinetically by vertical photometry in 200 wells of a honeycomb microtitre plate, simultaneously. The system consists of a Bioscreen C analyser, which is an incubator and measurement unit, integrated with a PC, software (BioLink v 5.30), printer and a ‘Honeycomb 2’ cuvette multiwell plate. Growth curve data can be analysed within the BioLink software or exported to programs such as Excel.
# (§7) Broth culture media were dispensed in 270 μl volumes into the wells as directed. Serial dilutions of a filter-sterilised APP stock solution were then dispensed into the same wells, as appropriate. The wells were inoculated with 30 μl of an appropriately diluted overnight broth culture or spore suspension, to give a final inoculum level of […]. The tests were incubated in the Bioscreen C for either 24 h at 30° C., or 72 h at 25° C. (depending on the micro-organism under investigation) with readings taken every 20 minutes after the trays were shaken. After the incubation period was complete the data were exported to Excel for analysis.
# S cerevisiae H78 = test: Bioscreen growth inhibition test; format: cell-based, Saccharomyces cerevisiae; settings: APP 213, BS010420, 72 h/25° C.
# Protocol: as §5, §6, §7
# L. monocytogenes 272 = test: Test in cooked minced chicken slurry; format: cell-based, Listeria monocytogenes
# Protocol: 1 kg of minced chicken (mainly lean meat) was purchased from the local butcher. This was mixed with 1 litre of BHI, mixed and dispensed as 100 g samples prior to autoclaving. When still warm, the meat was re-mixed thoroughly. When cooked, the meat was inoculated with 1 ml of 10^5 spores or cells (from an overnight broth), and re-mixed. The samples were then divided into 3×25 g portions, to which 0.5 ml of filter-sterilised APP20010215 was added (as 5% or 10% stock solutions) or water. An initial viable count was taken, and the samples then incubated at 8° C. and tested twice weekly. The pH of the chicken slurry was 6.42.
# Salmonella S19 = test: Chicken soup trial at 8° C.; format: cell-based, Salmonella sp.; settings: 500-1000 ppm; chicken soup at 8° C., TCSM010521, APP215
# From the text: as §1, §2, §3, §4
# B. cereus = test: Test in milk; format: cell-based, Bacillus cereus; settings: TMGB010605; for Control for: milk at 20° C.
# Protocol: 8.9 ml samples of UHT milk containing 0.5% glucose and the indicator bromocresol purple (0.01%) were prepared and sterilised by autoclaving. The pH before APP addition was pH 6.65. Appropriate stock solutions of APP batch number APP20010215 (at 138 mg/ml) were prepared and filter sterilised. 1 ml of each was added to the milk to prepare tests containing 0, 1000 and 2000 ppm APP. Tests were then inoculated with 100 μl of diluted overnight broth cultures or spore suspensions to give a final inoculum level of ca. 10^3 cfu/ml. These and uninoculated tests were incubated at 20 and 8° C. and examined daily for visible changes compared to uninoculated control.
structure (smiles),measurement,setting,value
"O=C1CC(CO)OC=C1O (stereo not drawn) [APP, Ascopyrone P]",Total inhibition for,Salm Typhimurium S29; 500 ppm,Total inhibition by 500 ppm for 25 d
same,Total inhibition for,Salm Typhimurium S29; 1000 ppm,Total inhibition by 1000 ppm for >27 d
same,Viable counts,"TAVC; day 0, TRM010521",9.3 × 10^6 cfu/g
same,Viable counts,"TAVC; day 1, TRM010521",2.2 × 10^8 cfu/g
same,Viable counts,"TAVC; day 2, TRM010521",1.5 × 10^8 cfu/g
same,Viable counts,"TAVC; day 3, TRM010521",5.0 × 10^8 cfu/g
same,Counts in control and APP samples,"TAVC; uninoculated raw meat at 8° C., pH 5.3",identical
same,Growth controlled for,S. cerevisiae ATCC9763 [1],1 days
same,APP level causing significant inhibition,S. cerevisiae ATCC9763 [2],Enhanced growth
same,APP level causing total inhibition,S. cerevisiae ATCC9763 [2],>4000
same,APP level causing significant inhibition,S cerevisiae H78,4000
same,APP level causing total inhibition,S cerevisiae H78,>4000
same,Effect on growth,"L. monocytogenes 272; 2000 ppm, minced chicken slurry at 8° C., pH 6.42, TCC010704",Slight inhibition by 2000 ppm only
same,No inhibition (effect on growth of target organism by 2000 ppm APP),"L. monocytogenes 272; Cooked minced chicken slurry at 8° C. pH 6.42, organism printed in brackets",(L. monocytogenes)
same,Total inhibition for,Salmonella S19,Total inhibition by 500-1000 ppm for 22 d
same,Control for,B. cereus; 1000 ppm,4 days
same,Control of growth,"B. cereus; 2000 ppm, milk at 8° C.",No control observed
same,Control for,B. cereus; 2000 ppm,6 days
